Assay results published in ChEMBL document CHEMBL5104167, “Development and profiling of mGlu7 NAMs with a range of saturable inhibition of agonist responses in vitro” (Bioorg Med Chem Lett, 2022).

Assays:
[1] = Plasma protein binding in rat assessed as unbound fraction; type: ADME, cell-free
[2] = Drug concentration in rat brain assessed as unbound fraction; type: ADME, tissue-based
[3] = target: T1, Metabotropic glutamate receptor 7 (Homo sapiens, UniProt Q14831)
[4] = target: Metabotropic glutamate receptor 7 (Rattus norvegicus, UniProt P35400); test: Negative allosteric modulation of rat mGlu7 in HEK cells expressing Galpha15 assessed as inhibition of L-AP4-induced response measured by calcium mobilization assay; type: functional, cell-based
Sequence of Metabotropic glutamate receptor 7 (Rattus norvegicus, UniProt P35400) (P35400 whole entry): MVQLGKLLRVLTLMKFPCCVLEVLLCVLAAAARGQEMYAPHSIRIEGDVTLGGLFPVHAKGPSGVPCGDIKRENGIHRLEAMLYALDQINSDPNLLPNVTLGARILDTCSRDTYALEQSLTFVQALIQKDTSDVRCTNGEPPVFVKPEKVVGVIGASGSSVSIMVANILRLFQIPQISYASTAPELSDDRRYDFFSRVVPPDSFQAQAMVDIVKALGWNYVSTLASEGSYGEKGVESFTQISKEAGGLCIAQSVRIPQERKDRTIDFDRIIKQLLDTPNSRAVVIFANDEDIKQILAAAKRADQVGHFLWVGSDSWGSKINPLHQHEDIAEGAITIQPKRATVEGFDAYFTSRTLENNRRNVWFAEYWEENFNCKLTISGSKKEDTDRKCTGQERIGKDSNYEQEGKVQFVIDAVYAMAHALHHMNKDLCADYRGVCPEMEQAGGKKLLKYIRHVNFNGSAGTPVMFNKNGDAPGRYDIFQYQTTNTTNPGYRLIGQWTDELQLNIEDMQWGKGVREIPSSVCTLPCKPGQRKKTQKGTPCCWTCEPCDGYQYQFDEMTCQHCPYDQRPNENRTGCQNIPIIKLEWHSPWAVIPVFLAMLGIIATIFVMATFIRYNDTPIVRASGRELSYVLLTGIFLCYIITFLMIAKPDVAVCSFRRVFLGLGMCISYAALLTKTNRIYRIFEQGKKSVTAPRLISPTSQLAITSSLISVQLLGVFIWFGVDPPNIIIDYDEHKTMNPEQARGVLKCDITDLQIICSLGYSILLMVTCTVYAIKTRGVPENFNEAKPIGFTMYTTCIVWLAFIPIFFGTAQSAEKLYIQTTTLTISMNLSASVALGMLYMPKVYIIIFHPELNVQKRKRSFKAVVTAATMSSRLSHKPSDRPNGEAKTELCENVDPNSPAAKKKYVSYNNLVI

[5] = target: T1, Metabotropic glutamate receptor 7; remark: listed apart in the source
[6] = Ratio of drug level in brain to plasma in rat; type: ADME, cell-free
[7] = filed as negative allosteric modulator

T1 sequence (Q14831 whole entry): as the sequence (P35400 whole entry) above, with G5R, V27A, H454N, T488S, S520A, N578D counted along it

Emin [3, 7] [%]	IC50 [4] [nM]	Structure (SMILES)	IC50 [5] [nM]	Emin [3] [%]	also measured
59	> 30000	COc1ccc(-c2noc(-c3cc(Cl)ccc3-n3cncn3)n2)c(F)c1OC	–	–	–
74	> 30000	COc1ccc(-c2noc(-c3cc(Cl)c(F)cc3-n3cncn3)n2)cc1OC	–	–	–
45	> 10000	COc1ccc(-c2coc(-c3cc(OC(F)(F)F)ccc3-n3cncn3)n2)cc1OC	–	–	–
–	263	COc1cc(OCC(=O)Nc2cc(OC(F)(F)F)ccc2-n2cncn2)ccc1OC1COC1	819	21.1	–

Continued, compound first:

Structure (SMILES)	Emin [3, 7] [%]	IC50 [4] [nM]	IC50 [5] [nM]	Emin [3] [%]	also measured
COc1ccc(-c2nnc(-c3cc(Cl)ccc3-c3ccnn3C)o2)cc1OC	–	–	–	–	Fu [1]: 3.9%; fraction unbound [2]: 0.009
COc1ccc(-c2noc(-c3cc(Cl)cc(F)c3-n3cncn3)n2)c(F)c1OC	69	1000	–	–	–
COc1ccc(-c2nnc(-c3cc(OC(F)(F)F)ccc3-n3cncn3)o2)cc1OC	60	2000	1300	–	–
COc1ccc(-c2nnc(-c3cc(OC(F)(F)F)ccc3-n3ccnc3)o2)cc1OC	–	–	3000	0	Kp [6]: 4.9
COc1cc(C(=O)Nc2cc(OC(F)(F)F)ccc2-n2cncn2)ccc1OCC1CC1	–	–	–	–	Kp [6]: 2.4
COc1cc(C(=O)Nc2cc(OC(F)(F)F)ccc2-n2cncn2)ccc1OC1CCC1	–	1000	3100	19	–
CCOC(=O)c1cnc2c(OC)cccc2c1-c1ccc(-c2cc(F)cnc2OC)nc1	–	2400	4570	22.4	–
COc1ccc(-c2nnc(-c3cc(OC(F)(F)F)ccc3-c3cn[nH]c3)o2)cc1OC	–	2000	5400	26	–
